Experimental data taken from patent US20070054848A1, “Composition and method for nerve regeneration” (priority 2003, published 2007).

Assays:
[1] = system: cerebellar granule neurons from P7 rats; assay: Neurite outgrowth assay, cerebellar neurons; type: cell-based, rat; conditions: cerebellar granule neurons; data not shown
[2] = target: T1, Rho-kinase (Bos taurus, UniProt Q28021); assay: Rho-kinase kinase assay with lysates of transfected 293T cells; type: cell-based; conditions: 293T cells transfected with myc-Rho-kinase; Y-27632 10 μM for 30 minutes
T1 sequence (Q28021 whole entry): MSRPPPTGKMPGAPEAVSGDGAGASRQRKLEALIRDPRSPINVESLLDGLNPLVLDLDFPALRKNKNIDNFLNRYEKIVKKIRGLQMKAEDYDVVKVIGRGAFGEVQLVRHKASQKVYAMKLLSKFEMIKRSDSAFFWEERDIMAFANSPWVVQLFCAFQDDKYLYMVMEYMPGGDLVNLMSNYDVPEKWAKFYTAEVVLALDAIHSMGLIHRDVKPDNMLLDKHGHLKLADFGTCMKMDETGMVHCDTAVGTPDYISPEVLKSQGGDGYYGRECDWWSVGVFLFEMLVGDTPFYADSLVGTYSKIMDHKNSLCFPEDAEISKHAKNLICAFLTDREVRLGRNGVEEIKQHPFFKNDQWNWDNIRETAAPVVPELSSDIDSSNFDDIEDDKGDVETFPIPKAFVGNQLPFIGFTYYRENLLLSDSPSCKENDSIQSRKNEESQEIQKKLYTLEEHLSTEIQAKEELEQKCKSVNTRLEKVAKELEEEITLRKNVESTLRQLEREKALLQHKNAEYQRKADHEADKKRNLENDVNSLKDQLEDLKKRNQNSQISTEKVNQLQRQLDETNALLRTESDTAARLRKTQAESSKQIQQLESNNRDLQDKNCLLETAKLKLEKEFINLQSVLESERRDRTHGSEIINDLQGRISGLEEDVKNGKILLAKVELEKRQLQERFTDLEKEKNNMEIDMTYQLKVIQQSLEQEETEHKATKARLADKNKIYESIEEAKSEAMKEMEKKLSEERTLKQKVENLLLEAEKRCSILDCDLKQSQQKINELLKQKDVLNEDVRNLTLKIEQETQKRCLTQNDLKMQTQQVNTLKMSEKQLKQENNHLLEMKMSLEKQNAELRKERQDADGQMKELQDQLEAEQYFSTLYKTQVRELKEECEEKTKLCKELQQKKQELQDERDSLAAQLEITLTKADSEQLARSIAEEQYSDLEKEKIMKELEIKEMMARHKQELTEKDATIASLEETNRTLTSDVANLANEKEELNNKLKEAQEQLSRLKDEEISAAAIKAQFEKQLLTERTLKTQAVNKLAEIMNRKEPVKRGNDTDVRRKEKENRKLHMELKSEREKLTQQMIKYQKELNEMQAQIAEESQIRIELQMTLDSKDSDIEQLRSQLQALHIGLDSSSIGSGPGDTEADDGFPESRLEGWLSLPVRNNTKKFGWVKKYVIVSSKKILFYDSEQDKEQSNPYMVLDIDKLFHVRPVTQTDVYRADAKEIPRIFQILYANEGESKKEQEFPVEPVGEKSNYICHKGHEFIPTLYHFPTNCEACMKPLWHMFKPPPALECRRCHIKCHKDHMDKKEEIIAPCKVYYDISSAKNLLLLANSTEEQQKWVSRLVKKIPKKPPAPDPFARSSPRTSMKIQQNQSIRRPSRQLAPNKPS
Experimental: Cells were lysed with lysis buffer (50 mM Tris-HCl (pH 7.5), 150 mM NaCl, 10% glycerol, 1% Nonidet-P40 and protease inhibitor cocktail). The kinase assay was carried out using the lysates.

[3] = system: N1E-115 cells; assay: Morphological analysis of N1E-115 cells; type: cell-based; conditions: for neurite formation / population with long neurites: Y-27632 10 μM for 30 minutes, constructs 48 hours after transfection
Experimental: N1E-115 cells were transfected with GFP, GFP-full-p21 or GFP-ΔNLS-p21, and cultured in serum-starved condition for 5 hours. Then, the medium was replaced with DMEM containing 10% fetal bovine serum. The cells were fixed at 48 hours after transfection. The morphology of the cells was categorized into 3 groups; neurite positive cells, round cells and the other cells. The cells with longer neurites than their soma were defined as neurite positive cells. The other cells had various features including microspikes, ruffles and a flattened appearance.

[4] = target: catalytic domain of Rho-kinase (GST-CAT) (Bos taurus, UniProt Q28021); assay: In vitro binding assay of p21 and Rho-kinase (GST-CAT); conditions: co-incubated at the indicated concentrations
Sequence of catalytic domain of Rho-kinase (GST-CAT) (Q28021 6-553 limits assumed): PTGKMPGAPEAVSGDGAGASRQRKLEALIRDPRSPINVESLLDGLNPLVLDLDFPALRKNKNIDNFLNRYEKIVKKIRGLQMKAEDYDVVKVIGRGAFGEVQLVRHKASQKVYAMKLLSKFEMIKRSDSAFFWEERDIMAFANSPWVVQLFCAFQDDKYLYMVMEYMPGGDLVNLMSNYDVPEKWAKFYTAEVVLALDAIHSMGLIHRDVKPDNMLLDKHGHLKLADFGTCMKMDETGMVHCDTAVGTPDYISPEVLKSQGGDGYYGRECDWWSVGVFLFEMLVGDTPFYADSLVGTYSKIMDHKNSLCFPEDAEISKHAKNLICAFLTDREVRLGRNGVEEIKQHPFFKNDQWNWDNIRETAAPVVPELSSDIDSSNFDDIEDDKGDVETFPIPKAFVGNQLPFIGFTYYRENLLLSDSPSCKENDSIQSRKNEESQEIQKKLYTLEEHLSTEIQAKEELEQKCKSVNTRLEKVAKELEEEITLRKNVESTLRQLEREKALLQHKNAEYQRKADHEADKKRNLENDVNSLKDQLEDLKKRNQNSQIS

[5] = target: T2, Recombinant human p75-Fc chimera (Homo sapiens, UniProt P08138); assay: Co-precipitation of recombinant p75 and gangliosides; type: binding; conditions: precipitation with protein A sepharose, Western blot
T2 construct: Recombinant p75 extracellular domain fused to Fc purified from Sf21 cells; purchased Genzyme-Techne; host or cells: Sf21 cells
T2 sequence (P08138 29-250 limits assumed): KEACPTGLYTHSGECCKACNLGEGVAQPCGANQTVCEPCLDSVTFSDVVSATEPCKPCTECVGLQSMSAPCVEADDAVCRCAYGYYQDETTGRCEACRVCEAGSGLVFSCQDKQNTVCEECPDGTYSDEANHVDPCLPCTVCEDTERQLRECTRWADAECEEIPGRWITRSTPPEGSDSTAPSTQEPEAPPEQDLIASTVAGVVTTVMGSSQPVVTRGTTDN
Experimental: Recombinant human p75-Fc chimera (1 μg; Genzyme-Techne) and 1 μg of purified ganglioside GT1b (>98% purity, Seikagaku Co.) were incubated in 200 μl 0.025% Tween20/PBS for 2 h, and p75 was precipitated using proteinA sepharose (Amersham Pharmacia Biotech). The resultant precipitates were electrophoretically transferred to polyvinylidene difluoride membranes after SDS-PAGE with 7% gels and were immunoblotted with anti GT1b antibody (IgM, Seikagaku Co.) or anti p75 antibody.

[6] = system: RhoA; assay: Affinity-precipitation of GTP-RhoA in cerebellar neurons; type: cell-based, mice; conditions: post-natal cerebellar neurons, wild type; MAG-Fc 25 μg/ml, Nogo peptide 4 μM
Experimental: 293 cells were transfected with pcDNA3 vectors containing wild type RhoA whose NH2-terminus is tagged with HA (Yamashita, T. et al., Neuron. 24:585-593, 1999) and/or full-length human p75 by lipofection using Lipofectamine 2000 (Gibco BRL). Cerebellar neurons from P9 mice were isolated as described previously (Cai et. al, Neuron, 22:89-101, 1999). Cells were lysed in 50 mM Tris (pH 7.5), 1% Triton X-100, 0.5% sodium deoxycholate, 0.1% SDS, 500 mM NaCl, 10 mM MgCl2, with leupeptin and aprotinin, each at 10 μg/ml. Cell lysates were clarified by centrifugation at 13,000×g at 4° C. for 10 min, and the supernatants were incubated with the 20 μg of GST-Rho binding domain of Rhotekin beads (Upstate Biotech.) at 4° C. for 45 min. The beads were washed 4 times with washing buffer (50 mM Tris (pH 7.5) containing 1% Triton X-100, 150 mM NaCl, 10 mM MgCl2, 10 μg/ml each of leupeptin and aprotinin). Bound Rho proteins were detected by Western blotting using a monoclonal antibody against RhoA (Santa Cruz Biotechnology).
Amino-terminally FLAG-tagged human p75 or the deletion mutants of p75 ICD were cloned into pcDNA3.1 expression plasmid, and were transfected with 293T cells. […] Bound Rho proteins were detected by Western blotting using a monoclonal antibody against RhoA (Santa Cruz Biotechnology).

[7] = target: T3, interaction of p75 with Rho GDI (Homo sapiens, UniProt P08138); assay: Co-immunoprecipitation of p75 with Rho GDI or RhoA in transfected N1E-115 cells; type: cell-based; conditions: N1E-115 cells transfected with FLAG-tagged p75; Nogo peptide 4 μM, MAG-Fc 25 μg/ml, NGF 100 ng/ml
T3 construct: expressed in transfected cells; host or cells: N1E-115 cells
T3 sequence (P08138 29-427): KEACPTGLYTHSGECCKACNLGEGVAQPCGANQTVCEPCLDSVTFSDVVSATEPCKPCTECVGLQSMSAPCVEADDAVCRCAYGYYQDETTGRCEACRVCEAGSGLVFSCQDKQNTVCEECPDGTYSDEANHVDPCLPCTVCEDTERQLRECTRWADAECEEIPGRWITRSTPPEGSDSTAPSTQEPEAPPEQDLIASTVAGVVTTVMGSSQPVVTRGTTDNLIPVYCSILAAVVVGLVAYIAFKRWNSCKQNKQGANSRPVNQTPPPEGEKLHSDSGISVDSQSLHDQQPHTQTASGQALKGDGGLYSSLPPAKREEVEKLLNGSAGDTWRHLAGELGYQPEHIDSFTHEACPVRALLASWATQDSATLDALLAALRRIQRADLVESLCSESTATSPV

[8] = system: cerebellar neurons; assay: Neurite outgrowth assay, post-natal cerebellar neurons; type: cell-based, mice; conditions: cerebellar neurons transfected with myc-tagged Rho GDI
[9] = target: T4, p75 (Homo sapiens, UniProt P08138); assay: Co-precipitation of p75 and Rho GDI with purified recombinant proteins; type: binding; conditions: p75 precipitated from transfected 293T cells; purified recombinant proteins
T4 construct: host or cells: 293T cells (p75)
T4 sequence (P08138 29-427): T3 sequence (P08138 29-427)

[10] = system: N1E-115 cells; assay: Growth and differentiation of N1E-115 cells; type: cell-based; conditions: for proliferation of N1E-115 cells: until 48 hours after transfection
Experimental: Cells were seeded in 6-cm dishes, transfected, and were counted 1 and 2 days after transfection. The relative increases in the number of the cells are shown. The values are means±SEM of 3 independent experiments. *, p<0.01 compared with full-p21 (Student's t-test). There is no significant difference between GFP and GFP-ΔNLS-p21 transfected cells. […] N1E-115 cells were treated with DMSO, or transfected with GFP-full-p21 or GFP-ΔNLS-p21, then were harvested at 1, 2, 3 and 4 days. Arrowheads indicate hyperphosphorylated pRb, and the arrow indicates underphosphorylated pRb. […] Shown are photomicrographs of the cells transfected with each construct. […] N1E-115 cells exposed to Y-27632 (10 μM) for 30 minutes or expressing GFP, GFP-full-p21 or GFP-ΔNLS-p21 were categorized into 3 groups; the cells with long neurites (long neurite), cells with a round form (round), and cells with other forms (others). Data represent means±SEM of 3 independent experiments. *, p<0.05 compared with control. **, p<0.01 compared with control as well as full-p21 (Student's t-test).
(§1) NIH3T3 cells, N1E-115 cells and 293T cells were maintained in DMEM containing 10% fetal bovine serum. Lipofectamine 2000 (Invitrogen) was used for transfection. For the stress fiber formation assay, NIH3T3 cells were cultured in serum-free medium for 16 hours after transfection. Stress fiber formation was evoked by incubating the cells with 10% serum for 10 minutes. Hippocampal neurons were prepared from 18-day-old Sprague-Dawley rats, as previously described (Neumann, H. et al., Science. 269:549-552, 1995). Briefly, hippocampi were dissected and the meninges removed. The trimmed tissue was dissociated by trituration. The dissociated cells were plated on dishes pre-coated with poly-L-lysine (Sigma), and cultured in DMEM containing 10% fetal bovine serum for 24 hours. Then, the medium was replaced with DMEM with B27 supplement (Invitrogen), and the cells were transfected with GFP or GFP-ΔNLS-p21. Neuronal morphology was estimated at 24 hours after the transfection.

[11] = system: NIH3T3 cells; assay: Stress fiber formation assay in NIH3T3 cells; type: cell-based; conditions: serum-starved 16 hours, 10% serum 10 minutes
Experimental: as §1

[12] = target: T1, Rho-kinase; assay: Co-immunoprecipitation of p21 constructs and Rho-kinase in 293T cells; type: cell-based; conditions: anti-p21 antibody
Experimental: 293T cells were transfected with myc-Rho-kinase in combination with GFP-full-p21 or GFP-ΔNLS-p21. At 48 hours after transfection, the cells were lysed with 1 ml of lysis buffer (50 mM Tris-HCl (pH 7.5), 150 mM NaCl, 10% glycerol, 0.5% Nonidet-P40 including protease inhibitor cocktail tablets (Roche). The cell lysates were centrifuged at 13,000×g for 20 minutes, and the supernatant was collected. Immunoprecipitations were performed for 2 hours at 4° C. using an anti-p21 mouse monoclonal antibody (Santa Cruz Biotechnology) and 0.75 ml of the supernatant. The immunocomplexes were collected with protein G-Sepharose (Amersham Pharmacia Biotech) slurry (50% v/v), washed 4 times with lysis buffer, and subjected to SDS-PAGE. They were transferred to the polyvinylidene difluoride membranes and probed with the anti-myc rabbit polyclonal antibody (Santa Cruz Biotechnology). Interaction of endogenous proteins in N1E-115 cells was assessed in the same way using anti Rho-kinase antibody.

[13] = system: hippocampal neurons; assay: Neurite outgrowth and branching of hippocampal neurons; type: cell-based; conditions: rat E18 hippocampal neurons, 24 hours after transfection
Experimental: as §1
Cultures of the hippocampal neurons from rat E18 embryos were used. […] Twenty-four hours after transfection, the cells were fixed and immunolabeled with β-tubulin III. The total neurite length per neuron, the axonal length, defined as the length of the longest neurite per neuron, the number of primary processes originating from the neuronal somata, and the number of branch points per neuron were determined (Neumann, H. et al., J. Neurosci. 22:854-862, 2002).

Question: `Cn1c2ccccc2c2c3c(c4c5ccccc5n(CCC#N)c4c21)CNC3=O` [G06976] was tested. Which “neurite outgrowth response to MAG-Fc or Nogo peptide with another PKC inhibitor” value [1] did it give?
Answer: Its value is “Same results were obtained”.

Question: Which “Rho-kinase activity (compared to the original)” value [2] does the source give for `C[C@@H](N)[C@H]1CC[C@H](C(=O)Nc2ccncc2)CC1` [Y-27632, reference compound] here?
Answer: The value was 51.9%.

Question: What about the “neurite formation / population with long neurites” value [3] of the same compound?
Answer: Its value is “induced significant neurite formation”.

Question: And the “interaction of p21 with Rho-kinase” value [4]?
Answer: Its value is “inhibited the interaction of p21 with Rho-kinase in a dose dependent manner”.

Question: “AKRRRLSSLRA [S6 kinase substrate peptide]” was tested. Which “interaction of p21 with Rho-kinase” value [4] did it give?
Answer: Its value is “inhibited the interaction of p21 with Rho-kinase in a dose dependent manner”.

Question: With GD1a as the compound, how does the “association with recombinant p75 extracellular domain fused to Fc” value [5] read?
Answer: The value was “did not see any interaction”.

Question: GT1b was tested. Which “association with recombinant p75 extracellular domain fused to Fc” value [5] did it give?
Answer: The value was “binds to p75 in a manner that is SDS-resistant”.

Question: Which results are given for “NGF: Nerve growth factor [reference compound]”?
Answer: RhoA activity [6]: rapidly inhibits RhoA activity; interaction of p75 with Rho GDI as well as RhoA [7]: abolished the interaction

Question: For “Rho GDI: Rho GDP dissociation inhibitor; recombinant protein or myc-tagged Rho GDI plasmid over-expression”, which “effect of over-expression on inhibition of neurite outgrowth by MAG and the Nogo peptide” value [8] is on record?
Answer: The value was “abolished these inhibitory effects”.

Question: What about the “direct physical interaction with p75” value [9] of the same compound?
Answer: The value was “bound to p75”.

Question: For “RhoA: bacterially produced RhoA, GDP-bound, GTP-bound or nucleotide-depleted”, which “direct physical interaction with p75” value [9] is on record?
Answer: Its value is “no interaction between them in any nucleotide state”.

Question: Which results are given for “full-length p21: pEGFP-full-p21 (aa 1-164), mammalian expression vector for GFP fused protein”?
Answer: Rho-kinase activity (compared to the original) [2]: no significant effect; neurite formation / population with long neurites [3]: no increase in the cell population that had long neurites; proliferation of N1E-115 cells [10]: stopped proliferation; actin stress fiber formation after the addition of serum [11]: Extensive actin stress fibers were observed; co-immunoprecipitation of myc-tagged Rho-kinase [12]: only a faint signal could be detected

Question: With “ΔNLS-p21: p21 with loss of nuclear localization signal (aa 1-140), expressed as GFP fused protein” as the compound, how does the “Rho-kinase activity (compared to the original)” value [2] read?
Answer: The value was 48.1%.

Question: And the “cells that extended long neurites” value ([3]; 48 hours after transfection)?
Answer: The value was “more than 45%”.

Question: And the “increase of cells with long neurites compared to the control” value ([3]; 48 hours after transfection)?
Answer: The value was 3.1 fold.

Question: What about the differentiation inducing activity ([10]; cyclin D3 and pRb Western blot) of the same compound?
Answer: The differentiation inducing activity was “has no differentiation inducing activity”.

Question: And the “proliferation of N1E-115 cells” value [10]?
Answer: The value was “proliferated until 48 hours after transfection”.

Question: And the “actin stress fiber formation after the addition of serum” value [11]?
Answer: Its value is “little stress fiber formation”.

Question: What about the “co-immunoprecipitation of myc-tagged Rho-kinase” value [12] of the same compound?
Answer: Its value is “efficiently precipitated myc-tagged Rho-kinase”.

Question: What about the “number of primary processes” value [13] of the same compound?
Answer: The value was “no change in the number of primary processes”.

Question: And the “number of branch points per neuron” value ([13]; control 1.3)?
Answer: The value was 2.6.

Question: And the “axonal length (length of the longest neurite per neuron)” value ([13]; control 66.3)?
Answer: Its value is 162.9 μm.

Question: What about the “total neurite length per neuron” value ([13]; control 135.9) of the same compound?
Answer: Its value is 307.2 μm.
